From the supplement of paper PMC10307832

How the values were obtained:
Experiment in all cases: relative viability (nuclei count vs DMSO), 5 days (fraction); higher = more cells survive
Selumetinib + Lapatinib = compound: Cn1cnc2c(F)c(Nc3ccc(Br)cc3Cl)c(C(=O)NOCCO)cc21 [Selumetinib] + CS(=O)(=O)CCNCc1ccc(-c2ccc3ncnc(Nc4ccc(OCc5cccc(F)c5)c(Cl)c4)c3c2)o1 [Lapatinib] (partner 2 µM)
Summary of the method: (§1)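 Relative viability was taken as the ratio of nuclei in treated wells to nuclei in vehicle wells. Lung cancer cell lines in 1536-well plates received compounds by pin tool one day after seeding, either one drug alone or a fixed anchor-drug dose plus five library-drug doses (not always all listed) in √10 steps. Nuclei were counted on 4× images after 5 days of treatment, and values are medians of duplicate plates.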

Venetoclax + Pictilisib = compound: CC1(C)CCC(CN2CCN(c3ccc(C(=O)NS(=O)(=O)c4ccc(NCC5CCOCC5)c([N+](=O)[O-])c4)c(Oc4cnc5[nH]ccc5c4)c3)CC2)=C(c2ccc(Cl)cc2)C1 [Venetoclax] + CS(=O)(=O)N1CCN(Cc2cc3nc(-c4cccc5[nH]ncc45)nc(N4CCOCC4)c3s2)CC1 [Pictilisib] (partner 1 µM)
Summary of the method: as §1

Venetoclax + Lapatinib = compound: CC1(C)CCC(CN2CCN(c3ccc(C(=O)NS(=O)(=O)c4ccc(NCC5CCOCC5)c([N+](=O)[O-])c4)c(Oc4cnc5[nH]ccc5c4)c3)CC2)=C(c2ccc(Cl)cc2)C1 [Venetoclax] + CS(=O)(=O)CCNCc1ccc(-c2ccc3ncnc(Nc4ccc(OCc5cccc(F)c5)c(Cl)c4)c3c2)o1 [Lapatinib] (partner 2 µM)
Summary of the method: as §1

Selumetinib + Alpelisib = compound: Cn1cnc2c(F)c(Nc3ccc(Br)cc3Cl)c(C(=O)NOCCO)cc21 [Selumetinib] + Cc1nc(NC(=O)N2CCC[C@H]2C(N)=O)sc1-c1ccnc(C(C)(C)C(F)(F)F)c1 [Alpelisib] (partner 2 µM)
Summary of the method: as §1

Cell Line	relative viability (Selumetinib + Lapatinib; first compound 0.02 µM)	relative viability (Selumetinib + Lapatinib; first compound 0.06325 µM)	relative viability (Selumetinib + Lapatinib; first compound 0.2 µM)	relative viability (Selumetinib + Lapatinib; first compound 0.6325 µM)	relative viability (Venetoclax + Pictilisib; first compound 0.01 µM)	relative viability (Venetoclax + Pictilisib; first compound 0.03162 µM)	relative viability (Venetoclax + Pictilisib; first compound 0.1 µM)	relative viability (Venetoclax + Pictilisib; first compound 0.3162 µM)	relative viability (Venetoclax + Pictilisib; first compound 1 µM)	relative viability (Venetoclax + Lapatinib; first compound 0.01 µM)	relative viability (Venetoclax + Lapatinib; first compound 0.03162 µM)	relative viability (Venetoclax + Lapatinib; first compound 0.1 µM)	relative viability (Venetoclax + Lapatinib; first compound 0.3162 µM)	relative viability (Venetoclax + Lapatinib; first compound 1 µM)	relative viability (Selumetinib + Alpelisib; first compound 0.02 µM)	relative viability (Selumetinib + Alpelisib; first compound 0.06325 µM)	relative viability (Selumetinib + Alpelisib; first compound 0.2 µM)	relative viability (Selumetinib + Alpelisib; first compound 0.6325 µM)
IA-LM	0.395	0.182	0.111	0.108	0.354	0.322	0.275	0.317	0.337	0.849	0.723	0.646	0.897	0.552	0.431	0.237	0.216	0.191
CAL-12T	0.542	0.425	0.523	0.521	0.36	0.609	0.489	0.419	0.396	0.584	0.74	0.577	0.61	0.679	1.22	0.823	0.895	0.817
NCI-H647	0.964	0.872	0.876	0.957	0.443	0.386	0.435	0.439	0.45	1.14	1.15	–	1.21	0.978	1.14	1.09	0.932	0.809
NCI-H1915	1.06	0.93	0.831	0.682	0.953	0.911	0.894	0.979	0.92	0.966	0.935	0.918	0.926	0.9	1.02	0.936	0.692	0.49
NCI-H2087	0.86	0.87	0.56	0.441	1.08	1.08	0.832	0.921	0.789	0.958	1.16	1.07	1.09	1.05	0.777	0.65	0.515	0.306
NCI-H2085	0.75	0.706	0.713	0.68	0.458	0.48	0.417	0.507	0.502	0.658	0.849	0.749	0.821	0.747	0.884	0.742	0.796	0.873
